Measurements as given in patent US9273095B2, “Antibiotic peptide and preparation method therefor and application therefor” (priority 2011, dated 2016).
In brackets after ≈: the same amount, converted by molar mass. Read-outs that look alike come from different tables or passages of the source. Non-standard residues stand in square brackets, D forms with d. Residues, ends and D or L forms follow the SMILES beside them.

How the values were obtained:
Enterococcus faecalis = test: organism not typed; type: cell-based
Experimental: The experimental strains are 37 standard strains preserved in lab and clinical isolated bacteria, including drug-resistant bacteria and quality-control bacteria selecting Staphylococcus aureus ATCC29213, Enterococcus faecalis ATCC29212, Escherichia coli ATCC25922, Pseudomonas aeruginosa ATCC27853 and klebsiella pneumoniae ATCC700603.
(1) Sensitivity test is conducted with two-fold agar dilution method and Denlay multipoint inoculator. Test bacteria are cultured with nutrient broth and brain heart infusion.
(2) The drug is double diluted into different concentration with MH broth after dissolved and then placed in the plate respectively.
(4) After solidification of the culture medium in the plate, test bacteria (10^4CFU/point) are inoculated by multipoint inoculator and cultured for 18 hours at constant 35° C. Then observe the results.

Shigella = test: microbe, parasite or virus in culture; type: cell-based
Outline: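 MICs determined by two-fold agar dilution in MH agar, drug final concentrations 0.03–128 μg/ml. Strains grown in nutrient broth and brain heart infusion, spotted at 10^4CFU/point with a multipoint inoculator, then incubated 18 hours at 35° C before reading.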

klebsiella pneumoniae = test: microbe, parasite or virus in culture; type: cell-based
Outline: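 Testing covers laboratory standard strains and clinical isolates, resistant bacteria among them, with ATCC quality-control strains. Each is multipoint-inoculated at 10^4CFU/point onto MH agar holding two-fold drug dilutions (0.03–128 μg/ml) and incubated 18 hours at 35° C.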

candida krusei = test: microbe, parasite or virus in culture; type: cell-based
Description: • (1) Test strains: monilia albicans (candida albicans), candida glabrata, candida krusei, candida tropicalis, aspergillus fumigatus and flavous. (2) Quality control strains: candida krusei JLC30366 (ATCC6258). Antimicrobial peptides PL-13 (SEQ ID NO: 1) under test are supplied by Jiangsu ProteLight Pharmaceutical & Biotechnology Co., LTD. […] (1) The bacterial strains which preserved on PDA slant are respectively inoculated onto PDA plate and slant medium. Activation of bacterial strains is conducted at a humidity level of 60% and 25° C. (for aspergillus) or 37° C. (for candida). (2) 0.9% stroke-physiological saline solution comprising 0.5% Tween-80 is used to prepare bacterial suspension for experiment. Hemocytometer is utilized to adjust concentration of the bacterial suspension to 1-3×10^6 CFU/ml (0.5 McFarland units) to make stock solution in reserve at -20° C. During the sensitivity test, the RPMI-1640 liquid medium is diluted 1000 times to 1-3×10^3 CFU/ml. (3) The RPMI-1640 liquid is utilized as diluent to 10-fold dilute stock solution of peptides. […] The eleventh orifice is used as living control orifice, while the twelfth one as blank control. (4) The RPMI-1640 liquid is utilized as diluent to 10-fold dilute stock solution of FCZ and ICZ. […] Ditto for other operations.

[1] = RP-HPLC temperature profiling: hydrophobicity and self-association; type: physicochemical; conditions: for tR(min) 5° C. / tR(min) 80° C.: RP-HPLC temperature profiling; for PA (min), association parameter: maximal normalized retention time difference within 5-80° C., self-association ability; for tR(min) Max: maximal retention time during temperature profiling 5-80° C.; for ΔtR(X-Peptide C)(min) 5° C.: retention time difference to control peptide C at 5° C.; for ΔtR(X-Peptide C)(min) 5° C. / ΔtR(X-Peptide C)(min) 80° C.: relative hydrophobicity; for ΔtR(X-Peptide C)(min) 80° C.: retention time difference to control peptide C at 80° C.; for Hydrophobicity tR5: retention time in RP-HPLC at pH 2, 5° C.; for Hydrophobicity tR80: retention time in RP-HPLC at pH 2, 80° C.
Experimental: Peptides are analyzed on an Agilent 1200 series liquid chromatograph (Little Falls, Del.). Runs are performed on a Zorbax 300 SB-C8 column (150×4.6 mm I.D.; 5 μm particle size, 300 Å pore size) from Agilent Technologies using linear AB gradient (1% acetonitrile/min) and a flow rate of 1 ml/min, where solvent A is 0.05% aqueous TFA, pH 2 and solvent B is 0.05% TFA in acetonitrile.
We further use temperature profiling during RP-HPLC to determine the self-association ability of various analogs of PL-13 (SEQ ID NO: 1) which would occur through interaction of the non-polar faces of these amphipathic peptides α-helices. We use 50% TFE aqueous acetonitrile and hydrophobic conditions in the reversed-phase column (hydrophobic stationary phase and the hydrophobic organic solvent in the mobile phase) since the hydrophobic environment of a reversed-phase column also could induce α-helical structure. Since its introduction, the technique of RP-HPLC temperature profiling has been applied on several types of molecules, including cyclic β-sheet peptides, monomeric α-helices and α-helices that dimerize, as well as α-helices that dimerize to form coiled-coils. Although peptides are eluted from a reversed-phase column mainly by an adsorption/desorption mechanism, even a peptide strongly bound to a hydrophobic stationary phase will partition between the matrix and the mobile phase when the acetonitrile content becomes high enough during gradient elution. In summary, the mechanism is based on four assumptions: (i) at low temperature, just as an amphipathic α-helical peptide is able to dimerize in aqueous solution (through its hydrophobic, non-polar face), it will dimerize in solution during partitioning in reversed-phase chromatography; (ii) at higher temperatures, the monomer-dimer equilibrium favors the monomer as the dimer is disrupted; (iii) at sufficiently high temperatures, only monomer is present in solution; and (iv) peptide is always bound in its monomeric helical form to the hydrophobic stationary phase, i.e., the dimer can only be present in solution and disruption of the dimer is required for rebinding to the RP-HPLC matrix.
([θ]222=−3,950). Since peptide C is a monomeric random coil peptide in both aqueous and hydrophobic media, its retention behavior over the temperature range 5-80° C. represents only general temperature effects on peptide retention behavior, i.e., a linear decrease in peptide retention time with increasing temperature due to greater solute diffusivity and enhanced mass transfer between the stationary and mobile phases at higher temperatures. Thus, after normalization to the retention times of peptide C, the retention behavior of the peptides only represents peptide self-association ability. Note that the higher the PA value, the greater the self-association ability. The order of peptide self-association ability of the three pairs of peptide enantiomers is identical to the order of peptide hydrophobicity. Apart from the decrease in retention time due to the general temperature effects noted above, destruction of the α-helix will also occur with increasing temperature, resulting in reduced retention times as the peptides become increasingly random coils.
The retention time data for the peptides is shown in Table 6 which records retention times at 5° C., the maximal retention times and retention times at 80° C. during the temperature profiling. Temperatures of 5-80° C. are the lower and upper temperature limits of temperature profiling in RP-HPLC, representing polymerization of the peptides at 5° C. and the monomerization of peptides at 80° C. due to denaturation of peptides by high temperature and dissociation of the polymers. The maximal retention times represent the threshold points at which peptides totally transform from polymeric to monomeric form. […]

[2] = 06-71 (VRE) Vancomycin-resistant Enterococci, read-out: MIC
[3] = Enterococcus faecalis ATCC29212, read-out: MIC
[4] = HH22* (AMEs) Aminoglycoside-modifying enzyme, read-out: MIC
[5] = strain 06-7 (listed under Enterococcus faecalis), read-out: MIC
[6] = 08-2 (ESBLs) (listed under klebsiella pneumoniae)
[7] = klebsiella pneumoniae ATCC700603
[8] = strain 7 (listed under klebsiella pneumoniae)

Compound | MIC (Enterococcus faecalis; [2]) [µM] | MIC (Shigella) [µM] | MIC (Enterococcus faecalis; [3]) [µM] | MIC (Enterococcus faecalis; [4]) [µM] | MIC (Enterococcus faecalis; [5]) [µM] | MIC (klebsiella pneumoniae; [6]) [µM] | MIC (klebsiella pneumoniae; [7]) [µM] | MIC (klebsiella pneumoniae; [8]) [µM] | Minimal inhibitory concentration (candida krusei; JLC 30366 candida krusei) [µg/mL] | Minimal inhibitory concentration (candida krusei; JLC 30383 candida krusei) [µg/mL] | tR(min) 5° C. [1] [min] | tR(min) 80° C. [1] [min] | PA (min), association parameter [1] [min] | tR(min) Max [1] [min] | ΔtR(X-Peptide C)(min) 5° C. [1] [min] | ΔtR(X-Peptide C)(min) 80° C. [1] [min] | Hydrophobicity tR5 [1] [min] | Hydrophobicity tR80 [1] [min] | other results
C[C@H]1COc2c(N3CCN(C)CC3)c(F)cc3c(=O)c(C(=O)O)cn1c23 [Levofloxacin, levofloxacin, reference compound] | 2.4 (≈ 0.867 µg/mL) | < 0.02 |  |  |  |  |  |  |  |  |  |  |  |  |  |  |  |  | MIC (Enterococcus faecalis; Enterococcus faecalis, ATCC29212, Enterococcus faecalis ATCC29212): 1.2 µM (≈ 0.434 µg/mL); MIC (Enterococcus faecalis; Enterococcus faecalis, HH22* (AMEs) Aminoglycoside-modifying enzyme): 1.2 µM (≈ 0.434 µg/mL); MIC (Enterococcus faecalis; Enterococcus faecalis, strain 06-7 (listed under Enterococcus faecalis)): 19.2 µM (≈ 6.95 µg/mL); MIC (klebsiella pneumoniae; Klebsiella pneumoniae, 08-2 (ESBLs) (listed under klebsiella pneumoniae)): 76.9 µM (≈ 27.8 µg/mL); MIC (klebsiella pneumoniae; Klebsiella pneumoniae, ATCC700603, klebsiella pneumoniae ATCC700603): 1.2 µM (≈ 0.434 µg/mL); MIC (klebsiella pneumoniae; Klebsiella pneumoniae, strain 7 (listed under klebsiella pneumoniae)): < 16 µM
CC[C@@H](C)[C@@H](NC(=O)[C@@H](CCCCN)NC(=O)[C@@H](CO)NC(=O)[C@@H](Cc1ccccc1)NC(=O)[C@@H](CC(C)C)NC(=O)[C@@H](CCCCN)NC(=O)[C@@H](CCC(=O)O)NC(=O)[C@@H](CC(C)C)NC(=O)[C@@H](CCCNC(=N)N)NC(=O)[C@@H](CCCCN)NC(=O)[C@@H](Cc1ccccc1)NC(C)=O)C(=O)N[C@H](Cc1c[nH]c2ccccc12)C(=O)N[C@H](CC(N)=O)C(=O)N[C@H](Cc1c[nH]c2ccccc12)C(=O)N[C@H](CCCCN)C(N)=O [PL-17] (Ac-[dF][dK][dR][dL][dE][dK][dL][dF][dS][dK][dI][dW][dN][dW][dK]-NH2) | 1.7 (≈ 3.51 µg/mL) | 0.3 (≈ 0.619 µg/mL) | 5.3 (≈ 10.9 µg/mL) | 10.7 (≈ 22.1 µg/mL) | 5.3 (≈ 10.9 µg/mL) | 0.3 (≈ 0.619 µg/mL) | 2.7 (≈ 5.57 µg/mL) | 0.3 (≈ 0.619 µg/mL) | 8 (≈ 3.88 µM) | 8 (≈ 3.88 µM) |  |  |  |  |  |  |  |  | 
CC(=O)N[C@H](Cc1ccccc1)C(=O)N[C@H](CCCCN)C(=O)N[C@H](CCCCN)C(=O)N[C@H](CC(C)C)C(=O)N[C@H](CCCCN)C(=O)N[C@H](CCCCN)C(=O)N[C@H](CC(C)C)C(=O)N[C@H](Cc1ccccc1)C(=O)N[C@H](CO)C(=O)N[C@H](CCCCN)C(=O)N[C@H](CC(C)C)C(=O)N[C@H](Cc1c[nH]c2ccccc12)C(=O)N[C@H](CC(N)=O)C(=O)N[C@H](Cc1c[nH]c2ccccc12)C(=O)N[C@H](CCCCN)C(N)=O [PL-18] (Ac-[dF][dK][dK][dL][dK][dK][dL][dF][dS][dK][dL][dW][dN][dW][dK]-NH2) | 1.3 (≈ 2.65 µg/mL) | 1.3 (≈ 2.65 µg/mL) |  | 1.7 (≈ 3.46 µg/mL) |  |  |  |  |  |  | 35.75 | 33.37 | 0.56 | 35.75 | 13.19 | 13.45 | 35.75 | 33.37 | Minimal inhibitory concentration (candida krusei): 4 µg/mL (≈ 1.97 µM)
CC(=O)N[C@H](Cc1ccccc1)C(=O)N[C@H](CCCCN)C(=O)N[C@H](CCCCN)C(=O)N[C@H](Cc1ccccc1)C(=O)N[C@H](CCCCN)C(=O)N[C@H](CCCCN)C(=O)N[C@H](CC(C)C)C(=O)N[C@H](CC(C)C)C(=O)N[C@H](CO)C(=O)N[C@H](CCCCN)C(=O)N[C@H](CC(C)C)C(=O)N[C@H](Cc1c[nH]c2ccccc12)C(=O)N[C@H](CC(N)=O)C(=O)N[C@H](Cc1c[nH]c2ccccc12)C(=O)N[C@H](CCCCN)C(N)=O [PL-43] (Ac-[dF][dK][dK][dF][dK][dK][dL][dL][dS][dK][dL][dW][dN][dW][dK]-NH2; N-terminus and C-terminus assumed) |  |  |  |  |  |  |  |  |  |  | 41.64 | 40.52 | 1.65 | 41.97 | 19.08 | 20.60 | 41.64 | 40.52 | 
Ac-FKKLKKLFSKLWNWK-NH2 [PL-13] | 1.7 | 0.7 |  | 1.7 | 1.3 |  |  |  |  |  | 35.75 | 33.37 | 0.56 | 35.75 | 13.19 | 13.45 | 35.75 | 33.37 | MIC (Enterococcus faecalis; read-out: MIC): 5.3 µM
Ac-FKRLEKLFSKIWNWK-NH2 [PL-12] | 0.3 | 1.7 | 1.3 | 0.3 | 5.3 | 5.3 | 2.7 | 5.3 | 8 | 16 |  |  |  |  |  |  | 38.04 | 36.10 | 
